Columns and labels:
[1] = target: Serine/threonine-protein kinase N2 (Homo sapiens) (UniProt Q16513); details: Compound concentration 1000.0 nM
[2] = target: Ephrin type-A receptor 4 (Homo sapiens) (UniProt P54764); details: Compound concentration 1000.0 nM
[3] = tested on: Tyrosine-protein kinase ABL1 (Homo sapiens), P00519 [T315I]; details: Compound concentration 1000.0 nM
[4] = target: Serine/threonine-protein kinase DCLK3 (Homo sapiens) (UniProt Q9C098); details: Compound concentration 1000.0 nM
[5] = target: Homeodomain-interacting protein kinase 3 (Homo sapiens) (UniProt Q9H422); details: Compound concentration 1000.0 nM
[6] = target: SRSF protein kinase 2 (Homo sapiens) (UniProt P78362); details: Compound concentration 1000.0 nM
[7] = target: Mitogen-activated protein kinase 15 (Homo sapiens) (UniProt Q8TD08); details: Compound concentration 1000.0 nM
[8] = target: Rho-associated protein kinase 1 (Homo sapiens) (UniProt Q13464); details: Compound concentration 1000.0 nM
[9] = target: Dual specificity tyrosine-phosphorylation-regulated kinase 1A (Homo sapiens) (UniProt Q13627); details: Compound concentration 1000.0 nM
[10] = tested on: Receptor-type tyrosine-protein kinase FLT3 (Homo sapiens), P36888 [D835V]; details: Compound concentration 1000.0 nM
[11] = target: Mitogen-activated protein kinase kinase kinase 12 (Homo sapiens) (UniProt Q12852); details: Compound concentration 1000.0 nM
[12] = tested on: Phosphatidylinositol 4,5-bisphosphate 3-kinase catalytic subunit alpha isoform (Homo sapiens), P42336 [M1043I]; details: Compound concentration 1000.0 nM
[13] = tested on: Phosphatidylinositol 4,5-bisphosphate 3-kinase catalytic subunit alpha isoform (Homo sapiens), P42336 [I800L]; details: Compound concentration 1000.0 nM
[14] = target: Serine/threonine-protein kinase pim-1 (Homo sapiens) (UniProt P11309); details: Compound concentration 1000.0 nM
[15] = target: Serine/threonine-protein kinase PRP4 homolog (Homo sapiens) (UniProt Q13523); details: Compound concentration 1000.0 nM
[16] = target: Dual serine/threonine and tyrosine protein kinase (Homo sapiens) (UniProt Q6XUX3); details: Compound concentration 1000.0 nM
[17] = target: Uncharacterized serine/threonine-protein kinase SBK3 (Homo sapiens) (UniProt P0C264); details: Compound concentration 1000.0 nM
[18] = target: Serine/threonine-protein kinase SBK1 (Homo sapiens) (UniProt Q52WX2); details: Compound concentration 1000.0 nM
[19] = target: Hormonally up-regulated neu tumor-associated kinase (Homo sapiens) (UniProt P57058); details: Compound concentration 1000.0 nM
Nociceptin receptor = Nociceptin receptor (Homo sapiens, UniProt P41146); test: GPCRScan assay: inhibition of NOP; set-up: radioligand conc. used [nm] 0.5 – 2.0, parental cells HEKT
[20] = tested on: Tyrosine-protein kinase ABL1 (Homo sapiens), P00519 [Y253F]; details: Compound concentration 1000.0 nM
[21] = target: Serine/threonine-protein kinase PAK 6 (Homo sapiens) (UniProt Q9NQU5); details: Compound concentration 1000.0 nM
[22] = target: Tyrosine-protein kinase JAK1 (Homo sapiens) (UniProt P23458); details: Compound concentration 1000.0 nM
[23] = tested on: Epidermal growth factor receptor (Homo sapiens), P00533 [T790M]; details: Compound concentration 1000.0 nM
[24] = target: Calcium/calmodulin-dependent protein kinase type IV (Homo sapiens) (UniProt Q16566); details: Compound concentration 1000.0 nM
[25] = target: Histamine H1 receptor (Homo sapiens) (UniProt P35367); details: Compound concentration 10.0 uM
[26] = target: 5-hydroxytryptamine receptor 2C (Homo sapiens) (UniProt P28335); details: Compound concentration 10.0 uM
[27] = target: Tyrosine-protein kinase ABL1 (Homo sapiens) (UniProt P00519); details: Compound concentration 1000.0 nM
[28] = target: Aurora kinase A (Homo sapiens) (UniProt O14965); details: Compound concentration 1000.0 nM
[29] = target: Muscarinic acetylcholine receptor M3 (Homo sapiens) (UniProt P20309); details: Compound concentration 10.0 uM
[30] = target: Ephrin type-A receptor 8 (Homo sapiens) (UniProt P29322); details: Compound concentration 1000.0 nM
[31] = target: Serine/threonine-protein kinase SIK3 (Homo sapiens) (UniProt Q9Y2K2); details: Compound concentration 1000.0 nM
[32] = target: Receptor tyrosine-protein kinase erbB-4 (Homo sapiens) (UniProt Q15303); details: Compound concentration 1000.0 nM
[33] = target: Non-receptor tyrosine-protein kinase TYK2 (Homo sapiens) (UniProt P29597); details: Compound concentration 1000.0 nM
[34] = target: Tyrosine-protein kinase JAK3 (Homo sapiens) (UniProt P52333); details: Compound concentration 1000.0 nM
[35] = target: Tyrosine-protein kinase ZAP-70 (Homo sapiens) (UniProt P43403); details: Compound concentration 1000.0 nM
[36] = target: G protein-coupled receptor kinase 3 (Homo sapiens) (UniProt P35626); details: Compound concentration 1000.0 nM
[37] = target: Serine/threonine-protein kinase MARK2 (Homo sapiens) (UniProt Q7KZI7); details: Compound concentration 1000.0 nM
[38] = target: Mitogen-activated protein kinase 13 (Homo sapiens) (UniProt O15264); details: Compound concentration 1000.0 nM
[39] = target: Mitogen-activated protein kinase kinase kinase kinase 2 (Homo sapiens) (UniProt Q12851); details: Compound concentration 1000.0 nM
[40] = target: Tyrosine-protein kinase ITK/TSK (Homo sapiens) (UniProt Q08881); details: Compound concentration 1000.0 nM
[41] = target: Casein kinase II subunit alpha' (Homo sapiens) (UniProt P19784); details: Compound concentration 1000.0 nM
[42] = target: MAP/microtubule affinity-regulating kinase 3 (Homo sapiens) (UniProt P27448); details: Compound concentration 1000.0 nM
[43] = target: Serine/threonine-protein kinase 17B (Homo sapiens) (UniProt O94768); details: Compound concentration 1000.0 nM
[44] = target: Rhodopsin kinase GRK1 (Homo sapiens) (UniProt Q15835); details: Compound concentration 1000.0 nM
Sequence of Rhodopsin kinase GRK1 (Homo sapiens) (Q15835 whole entry): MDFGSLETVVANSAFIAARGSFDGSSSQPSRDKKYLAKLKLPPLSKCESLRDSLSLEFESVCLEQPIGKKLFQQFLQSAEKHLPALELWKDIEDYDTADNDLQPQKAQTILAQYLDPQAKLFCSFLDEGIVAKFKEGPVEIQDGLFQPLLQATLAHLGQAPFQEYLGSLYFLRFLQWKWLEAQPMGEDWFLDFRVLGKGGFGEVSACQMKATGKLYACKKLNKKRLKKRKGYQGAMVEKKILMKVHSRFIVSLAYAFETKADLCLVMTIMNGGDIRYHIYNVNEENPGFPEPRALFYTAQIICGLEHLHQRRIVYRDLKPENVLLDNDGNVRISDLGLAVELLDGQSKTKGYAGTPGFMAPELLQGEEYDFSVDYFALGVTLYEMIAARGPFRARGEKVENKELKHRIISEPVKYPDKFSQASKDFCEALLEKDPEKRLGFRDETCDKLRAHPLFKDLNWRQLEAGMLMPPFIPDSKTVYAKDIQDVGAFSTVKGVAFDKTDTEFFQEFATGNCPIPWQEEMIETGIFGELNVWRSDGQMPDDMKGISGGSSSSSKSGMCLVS

Sequence of Nociceptin receptor (P41146 whole entry): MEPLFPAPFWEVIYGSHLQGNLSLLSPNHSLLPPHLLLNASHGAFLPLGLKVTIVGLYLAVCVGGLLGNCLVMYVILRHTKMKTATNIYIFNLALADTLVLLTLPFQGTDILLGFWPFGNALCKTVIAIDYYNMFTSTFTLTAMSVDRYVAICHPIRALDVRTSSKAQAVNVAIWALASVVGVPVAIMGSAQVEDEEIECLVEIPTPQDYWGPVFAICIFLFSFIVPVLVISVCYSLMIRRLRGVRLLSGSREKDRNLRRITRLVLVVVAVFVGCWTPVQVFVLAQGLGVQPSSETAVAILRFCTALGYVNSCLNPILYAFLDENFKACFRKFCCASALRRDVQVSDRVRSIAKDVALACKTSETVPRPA
Sequence of G protein-coupled receptor kinase 3 (Homo sapiens) (P35626 whole entry): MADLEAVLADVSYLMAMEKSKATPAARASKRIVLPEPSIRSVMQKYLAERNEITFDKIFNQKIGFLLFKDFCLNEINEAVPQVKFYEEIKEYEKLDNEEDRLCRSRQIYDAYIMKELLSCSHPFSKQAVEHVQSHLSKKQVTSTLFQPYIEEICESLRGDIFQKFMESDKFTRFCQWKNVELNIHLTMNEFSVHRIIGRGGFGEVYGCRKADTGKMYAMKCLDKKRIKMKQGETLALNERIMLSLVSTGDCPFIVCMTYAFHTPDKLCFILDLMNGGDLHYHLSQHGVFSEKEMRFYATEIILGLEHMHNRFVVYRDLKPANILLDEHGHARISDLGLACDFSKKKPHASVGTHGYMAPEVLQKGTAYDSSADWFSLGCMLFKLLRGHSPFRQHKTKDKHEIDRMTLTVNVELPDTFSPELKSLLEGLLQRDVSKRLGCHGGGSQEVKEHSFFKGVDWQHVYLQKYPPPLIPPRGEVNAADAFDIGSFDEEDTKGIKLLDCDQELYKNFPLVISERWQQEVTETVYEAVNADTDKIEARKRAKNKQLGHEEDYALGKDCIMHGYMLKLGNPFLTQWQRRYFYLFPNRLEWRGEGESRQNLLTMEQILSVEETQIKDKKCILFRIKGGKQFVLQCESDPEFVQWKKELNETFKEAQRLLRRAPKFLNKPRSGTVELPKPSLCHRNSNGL
Sequence of Uncharacterized serine/threonine-protein kinase SBK3 (Homo sapiens) (P0C264 whole entry): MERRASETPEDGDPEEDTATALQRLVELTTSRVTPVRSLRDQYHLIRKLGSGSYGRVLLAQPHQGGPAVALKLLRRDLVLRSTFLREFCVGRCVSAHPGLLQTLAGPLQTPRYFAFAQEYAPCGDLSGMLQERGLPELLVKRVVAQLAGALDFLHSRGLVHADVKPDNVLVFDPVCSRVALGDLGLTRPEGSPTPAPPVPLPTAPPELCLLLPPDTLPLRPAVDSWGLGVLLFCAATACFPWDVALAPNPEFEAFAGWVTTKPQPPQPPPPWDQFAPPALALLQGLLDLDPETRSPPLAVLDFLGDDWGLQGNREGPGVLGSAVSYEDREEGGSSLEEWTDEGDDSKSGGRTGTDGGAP
Sequence of Mitogen-activated protein kinase kinase kinase kinase 2 (Homo sapiens) (Q12851 whole entry): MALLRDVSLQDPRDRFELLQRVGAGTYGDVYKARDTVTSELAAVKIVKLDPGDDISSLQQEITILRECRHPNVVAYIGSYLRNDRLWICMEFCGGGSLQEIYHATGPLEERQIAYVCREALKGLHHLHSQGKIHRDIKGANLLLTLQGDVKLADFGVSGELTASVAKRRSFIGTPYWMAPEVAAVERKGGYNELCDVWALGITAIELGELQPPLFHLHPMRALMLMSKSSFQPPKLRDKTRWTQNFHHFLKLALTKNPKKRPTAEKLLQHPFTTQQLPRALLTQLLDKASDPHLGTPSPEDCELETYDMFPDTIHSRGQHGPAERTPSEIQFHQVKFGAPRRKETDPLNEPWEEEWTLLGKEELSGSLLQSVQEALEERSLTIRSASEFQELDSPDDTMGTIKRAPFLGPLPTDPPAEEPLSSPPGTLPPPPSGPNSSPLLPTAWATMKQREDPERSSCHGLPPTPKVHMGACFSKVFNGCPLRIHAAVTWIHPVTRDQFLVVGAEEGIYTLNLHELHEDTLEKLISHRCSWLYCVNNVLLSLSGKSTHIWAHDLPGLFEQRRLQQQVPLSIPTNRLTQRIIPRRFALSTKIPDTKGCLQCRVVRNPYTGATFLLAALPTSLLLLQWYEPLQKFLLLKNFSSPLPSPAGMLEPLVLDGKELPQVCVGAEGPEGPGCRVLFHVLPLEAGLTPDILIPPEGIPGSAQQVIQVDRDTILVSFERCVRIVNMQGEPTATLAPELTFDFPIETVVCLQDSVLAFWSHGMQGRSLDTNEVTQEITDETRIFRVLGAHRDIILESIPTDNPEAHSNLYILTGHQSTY
Sequence of Serine/threonine-protein kinase 17B (Homo sapiens) (O94768 whole entry): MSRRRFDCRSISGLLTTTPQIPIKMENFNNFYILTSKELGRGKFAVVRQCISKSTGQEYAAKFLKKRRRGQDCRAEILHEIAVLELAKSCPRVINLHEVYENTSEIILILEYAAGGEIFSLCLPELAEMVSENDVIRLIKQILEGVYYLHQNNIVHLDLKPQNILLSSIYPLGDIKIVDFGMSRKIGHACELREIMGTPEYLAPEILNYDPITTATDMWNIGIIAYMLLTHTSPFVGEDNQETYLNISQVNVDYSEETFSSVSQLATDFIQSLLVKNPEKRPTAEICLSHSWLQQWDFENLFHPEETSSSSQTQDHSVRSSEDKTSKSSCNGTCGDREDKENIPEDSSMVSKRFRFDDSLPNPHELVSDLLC
Sequence of Non-receptor tyrosine-protein kinase TYK2 (Homo sapiens) (P29597 whole entry): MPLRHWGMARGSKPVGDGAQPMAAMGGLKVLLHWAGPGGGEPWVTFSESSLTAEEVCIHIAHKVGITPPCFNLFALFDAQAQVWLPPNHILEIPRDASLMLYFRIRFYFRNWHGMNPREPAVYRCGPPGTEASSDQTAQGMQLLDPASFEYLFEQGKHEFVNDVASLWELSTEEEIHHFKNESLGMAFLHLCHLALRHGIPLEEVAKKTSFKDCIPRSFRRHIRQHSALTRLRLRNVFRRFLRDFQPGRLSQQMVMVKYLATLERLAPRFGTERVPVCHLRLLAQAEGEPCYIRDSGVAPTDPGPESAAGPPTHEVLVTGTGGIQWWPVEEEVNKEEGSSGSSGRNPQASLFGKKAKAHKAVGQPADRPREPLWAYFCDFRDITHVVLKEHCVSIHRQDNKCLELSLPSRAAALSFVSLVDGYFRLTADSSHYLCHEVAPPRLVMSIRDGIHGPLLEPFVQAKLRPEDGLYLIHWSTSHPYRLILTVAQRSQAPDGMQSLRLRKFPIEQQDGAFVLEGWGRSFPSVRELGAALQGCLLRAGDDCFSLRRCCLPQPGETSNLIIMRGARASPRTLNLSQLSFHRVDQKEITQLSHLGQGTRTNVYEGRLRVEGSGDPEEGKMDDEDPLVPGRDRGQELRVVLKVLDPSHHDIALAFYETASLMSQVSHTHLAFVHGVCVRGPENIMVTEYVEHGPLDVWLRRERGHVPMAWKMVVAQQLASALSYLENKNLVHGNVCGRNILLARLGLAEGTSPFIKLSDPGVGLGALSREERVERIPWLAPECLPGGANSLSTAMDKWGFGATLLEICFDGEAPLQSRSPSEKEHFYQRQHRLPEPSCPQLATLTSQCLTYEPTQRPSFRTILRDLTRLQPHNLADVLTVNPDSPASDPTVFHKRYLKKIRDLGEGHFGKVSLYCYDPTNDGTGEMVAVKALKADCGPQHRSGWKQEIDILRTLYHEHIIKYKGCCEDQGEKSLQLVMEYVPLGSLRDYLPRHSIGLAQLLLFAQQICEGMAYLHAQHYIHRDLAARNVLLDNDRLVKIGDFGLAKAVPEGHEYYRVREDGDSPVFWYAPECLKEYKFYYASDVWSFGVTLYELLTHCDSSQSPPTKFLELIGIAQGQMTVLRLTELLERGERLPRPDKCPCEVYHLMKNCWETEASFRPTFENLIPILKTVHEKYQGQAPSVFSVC
Sequence of Serine/threonine-protein kinase PAK 6 (Homo sapiens) (Q9NQU5 whole entry, looked up): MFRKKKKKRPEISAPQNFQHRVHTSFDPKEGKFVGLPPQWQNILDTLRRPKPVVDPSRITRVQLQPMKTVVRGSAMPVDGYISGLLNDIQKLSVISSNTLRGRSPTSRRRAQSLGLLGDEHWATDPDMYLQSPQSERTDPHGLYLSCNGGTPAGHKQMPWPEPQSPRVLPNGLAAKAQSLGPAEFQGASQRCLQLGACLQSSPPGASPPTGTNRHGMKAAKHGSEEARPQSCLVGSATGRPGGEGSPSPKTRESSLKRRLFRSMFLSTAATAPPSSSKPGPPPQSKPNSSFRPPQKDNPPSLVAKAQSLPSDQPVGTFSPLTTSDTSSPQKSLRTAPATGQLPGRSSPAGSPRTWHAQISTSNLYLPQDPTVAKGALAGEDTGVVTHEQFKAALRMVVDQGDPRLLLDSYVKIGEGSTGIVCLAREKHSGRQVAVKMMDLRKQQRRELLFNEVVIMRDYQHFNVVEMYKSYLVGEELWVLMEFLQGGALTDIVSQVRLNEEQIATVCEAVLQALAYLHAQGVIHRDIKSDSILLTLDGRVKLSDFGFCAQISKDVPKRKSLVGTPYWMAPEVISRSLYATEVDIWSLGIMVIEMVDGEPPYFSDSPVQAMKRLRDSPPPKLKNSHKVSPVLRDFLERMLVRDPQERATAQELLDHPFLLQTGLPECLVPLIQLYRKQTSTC

CC(=O)c1c(NS(C)(=O)=O)c2cc(-c3ccc(Cl)cc3)c(-c3ccc(Cl)cc3Cl)nc2n(C)c1=O [MRL-CB1-NC]
inactive: residual activity [1] 76% | residual activity [2] 98% | residual activity [3] 93% | residual activity [4] 100% | residual activity [5] 88% | residual activity [6] 100% | residual activity [7] 100% | residual activity [8] 85% | residual activity [9] 77% | residual activity [10] 89% | residual activity [11] 100% | residual activity [12] 100% | residual activity [13] 64% | residual activity [14] 90% | residual activity [15] 83% | residual activity [16] 100% | residual activity [17] 95% | residual activity [18] 77% | residual activity [19] 100% | inhibition (Nociceptin receptor; Compound concentration 10.0 uM) -2.4% | residual activity [20] 94% | residual activity [21] 100% | residual activity [22] 76% | residual activity [23] 64% | residual activity [24] 100% | inhibition [25] 18.8% | residual activity [27] 92% | residual activity [28] 87% | inhibition [29] 4.36% | residual activity [30] 97% | residual activity [31] 100% | residual activity [32] 100% | residual activity [33] 94% | residual activity [34] 100% | residual activity [35] 100% | residual activity [36] 100% | residual activity [37] 100% | residual activity [38] 97% | residual activity [39] 82% | residual activity [40] 97% | residual activity [41] 100% | residual activity [42] 100% | residual activity [43] 100% | residual activity [44] 84%
active: inhibition [26] 81.8%

CC(=O)Nc1c(C(C)=O)c(=O)n(C)c2nc(-c3ccc(Cl)cc3Cl)c(-c3ccc(Cl)cc3)cc12 [NAPHTHYRIDINONE]
10 µM: Ki (Nociceptin receptor)
inactive: residual activity [1] 100% | residual activity [2] 96% | residual activity [3] 100% | residual activity [4] 100% | residual activity [5] 97% | residual activity [6] 100% | residual activity [7] 100% | residual activity [8] 100% | residual activity [9] 100% | residual activity [10] 82% | residual activity [11] 100% | residual activity [12] 100% | residual activity [13] 58% | residual activity [14] 100% | residual activity [15] 100% | residual activity [16] 100% | residual activity [17] 100% | residual activity [18] 80% | residual activity [19] 100% | residual activity [20] 96% | residual activity [21] 100% | residual activity [22] 100% | residual activity [23] 100% | residual activity [24] 100% | inhibition [25] -1.39% | inhibition [26] 17.5% | residual activity [27] 81% | residual activity [28] 100% | inhibition [29] -6.59% | residual activity [30] 100% | residual activity [31] 100% | residual activity [32] 91% | residual activity [33] 100% | residual activity [34] 100% | residual activity [35] 100% | residual activity [36] 99% | residual activity [37] 100% | residual activity [38] 100% | residual activity [39] 92% | residual activity [40] 100% | residual activity [41] 100% | residual activity [42] 100% | residual activity [43] 100% | residual activity [44] 78%
5: pKi (Nociceptin receptor)

Source: ChEMBL document CHEMBL4507287, “Data for DCP probe MRL-650” (2021)
